pIC50: −log10 of the molar value. Like-named read-outs stand apart in the source and are kept apart here.
Columns and labels:
breast cancer cell lines = conditions: 0.1 μM DOX alone or combined with 50 μM SC; cited from earlier work
Balb/c mice = assay: Comparative toxicology study of DOX and CON1; assay type: in vivo; conditions: i.p.; for creatine phosphokinase (CPK): after 72 h, only DOX significant; for other blood parameters (RBC, HGB, HCT, MCV, MCH, MCHC, RDW, PLT, MPV): data not shown; for percentage of lymphocytes (% LYM, LYM, WBC) / percentage of monocytes and granulocytes (% MON and % GRA): over time
Experimental: Male Balb/c mice, aged 7-11 weeks, were sourced from the EL-42BIO/Br-01 (Laboratory of Pharmacology, School of Medicine, University of Thessaly, Larissa, Greece). The mice were kept in an environment with a 12-hour light/dark cycle, humidity of around 50-60%, and a temperature of 20-22° C. They had free access to food and water. The handling and experimentation of the mice were conducted in compliance with the Greek laws (PD 56/2013 and Circular 2215/117550/2013) and the European Union guidelines ([…]). The protocol was approved by the IACUC and Greek authorities (License no. 58376/13.02.2023). The mice were divided into three groups with two mice per group, amounting to a total of 18 mice. They were treated as follows: Group 1 received vehicle (10% DMSO and 5% Tween80); Group 2-DOX received 7 mg/kg of body weight via intraperitoneal injection (i.p.); Group 3 received CON1 at 14 mg/kg of body weight (to achieve a DOX concentration of 7 mg/kg of body weight), i.p. The study took place over three time points: 24 h, 48 h and 72 h. At the end of each period, blood samples were collected from the mice's tails and cheeks, and the mice were euthanized by CO2 inhalation followed by cervical dislocation. Fresh blood samples were analyzed using the scil Vet ABC™Hematology Analyzer (scil animal care company GmbH, Germany), while sera from all samples were extracted and analyzed using the Skyla VB1 Veterinary Clinical Chemistry Analyzer (Skyla Corporation, Taiwan) with the Critical Care Panel (900-330) (Skyla Corporation, Taiwan).

[1] = system: U87, U87-TxR, U251, NCI-H460, NCI-H460/R, DLD1, DLD1-TxR and MRC-5; assay: MTT cytotoxicity across the cell line panel (FIG. 1); assay type: cell-based; conditions: Homo sapiens
Experimental: The MTT test was used to evaluate the effect of the compounds on cell viability. The test relies on the reduction of tetrazolium salt (MTT) to formazan, which is catalyzed by the mitochondrial enzyme succinate dehydrogenase. The activity of succinate dehydrogenase, which is indicative of mitochondrial respiration, is taken as an indirect measure of the metabolic activity of the cell, and thus its viability. The MTT-formazan produced is a purple-colored product, whose absorbance is measured at a wavelength of 570 nm. • a) To determine the inhibition of cell growth by SC, different cell lines were exposed to increasing concentrations of SC (5, 10, 25, 50, and 100 μM). […] The absorbance of the samples was measured at 570 nm using a Multiskan Sky Microplate spectrophotometer (ThermoFisher Scientific, USA). The results were analyzed using GraphPad Prism 8.0.2. software, and the IC50 values were determined by non-linear regression. • b) To test the interaction between SC and DOX in terms of cytotoxicity in different cell lines, cells were seeded in 96-well microtiter plates at a density of 2,000 cells per well for NCI-H460, NCI-H460/R, DLD1 and DLD1-TxR, and 4,000 cells per well for MRC-5, U87, U87-TxR, and U251 in 100 μl of the appropriate medium. […]

[2] = molecular target: T1, P-glycoprotein activity in NCI-H460/R (Homo sapiens, UniProt P08183); assay: DOX and rhodamine 123 accumulation test, flow cytometry; assay type: cell-based
T1 construct: obtained by successive exposure of NCI-H460 cells to increasing concentrations of DOX; endogenous in cells; host or cells: NCI-H460/R (doxorubicin-selected from NCI-H460)
T1 sequence (P08183 whole entry): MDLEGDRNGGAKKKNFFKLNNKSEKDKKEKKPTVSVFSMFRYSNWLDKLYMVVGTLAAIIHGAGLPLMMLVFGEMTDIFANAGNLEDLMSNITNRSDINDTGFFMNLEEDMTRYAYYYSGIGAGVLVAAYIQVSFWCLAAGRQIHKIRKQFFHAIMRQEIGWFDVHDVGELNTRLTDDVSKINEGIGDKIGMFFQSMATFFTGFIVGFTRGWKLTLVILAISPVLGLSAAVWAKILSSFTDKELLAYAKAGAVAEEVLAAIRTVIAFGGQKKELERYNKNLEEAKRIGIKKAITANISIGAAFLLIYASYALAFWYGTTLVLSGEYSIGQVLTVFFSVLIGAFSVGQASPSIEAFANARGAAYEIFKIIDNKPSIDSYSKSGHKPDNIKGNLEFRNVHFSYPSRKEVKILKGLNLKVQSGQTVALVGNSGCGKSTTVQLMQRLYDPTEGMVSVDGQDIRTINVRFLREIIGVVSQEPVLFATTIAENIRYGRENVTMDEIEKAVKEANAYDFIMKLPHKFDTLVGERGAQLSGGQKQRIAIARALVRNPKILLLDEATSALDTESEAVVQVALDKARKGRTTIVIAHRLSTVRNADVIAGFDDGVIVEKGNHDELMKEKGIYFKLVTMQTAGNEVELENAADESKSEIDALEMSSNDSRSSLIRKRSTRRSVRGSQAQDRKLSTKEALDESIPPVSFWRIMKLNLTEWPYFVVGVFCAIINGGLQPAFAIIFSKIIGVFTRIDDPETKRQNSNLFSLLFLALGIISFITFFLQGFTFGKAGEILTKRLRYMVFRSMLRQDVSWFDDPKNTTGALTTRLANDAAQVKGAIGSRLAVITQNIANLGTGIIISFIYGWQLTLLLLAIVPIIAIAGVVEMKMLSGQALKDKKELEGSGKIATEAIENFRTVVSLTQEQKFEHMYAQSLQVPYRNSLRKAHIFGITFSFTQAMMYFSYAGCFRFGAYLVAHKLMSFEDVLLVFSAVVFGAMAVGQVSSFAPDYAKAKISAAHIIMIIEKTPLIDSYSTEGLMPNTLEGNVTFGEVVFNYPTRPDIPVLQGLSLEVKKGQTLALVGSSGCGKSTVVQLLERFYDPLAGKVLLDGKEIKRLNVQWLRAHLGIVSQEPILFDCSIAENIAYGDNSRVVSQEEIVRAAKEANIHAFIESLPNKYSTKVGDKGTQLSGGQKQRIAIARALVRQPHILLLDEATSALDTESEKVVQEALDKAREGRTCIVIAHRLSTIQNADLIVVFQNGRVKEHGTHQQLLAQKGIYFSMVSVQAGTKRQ
Experimental: (§1) • a) First, DOX accumulation test was performed on three glioblastoma cell lines, U87, U87-TxR, and U251. Cells were trypsinized and counted, and then 100,000 cells per sample were collected in a tube for flow cytometry and resuspended in 500 μL of culture medium. Cells were treated with 20 μM and 50 µM SC. Immediately after SC treatment, cells were treated with 20 μM DOX, and samples were incubated at 37° C. in a humid atmosphere with 5% CO2 for 60 min. After the accumulation period, the samples were centrifuged, washed twice with cold Phosphate Buffered Saline (PBS), and finally resuspended in 1 mL of PBS. The fluorescence of the samples was read on the FL2 (red channel) of a cytofluorimeter (Partec, Munster, Germany), and the results were analyzed with the software package Summit 4.3. • b) Secondly, DOX and rhodamine 123 accumulation test was performed on non-small cell lung carcinoma cell lines NCI-H460 and NCI-H460/R. Cells were trypsinized and counted, and then 100,000 cells per sample were collected in a tube for flow cytometry and resuspended in 500 μl of culture medium. Cells were treated with 50 μM SC. Immediately after treatment, 5 μM Rho123 was added to one group of samples and the other 20 μM DOX. […] The samples were analyzed using a flow cytometer, reading for rhodamine 123 on FL1 (green channel) and DOX on FL2 (red channel). […]

[3] = system: glioblastoma cell lines U87, U87-TxR and U251; assay: DOX accumulation test, flow cytometry; assay type: cell-based, human; conditions: 20 μM and 50 μM SC with 20 μM DOX, 60 min
Experimental: as §1

[4] = DOX 7 mg/kg, CON1 14 mg/kg, 24, 48, 72 h
[5] = CON1 14 mg/kg, at 48 h, disappeared after 72 h

accumulation of DOX ([2]; 50 μM SC with 20 μM DOX, 60 min)	accumulation of rhodamine 123 / P-glycoprotein activity ([2]; 50 μM SC with rhodamine 123, 30 min)	Molecule	rate of cell growth (breast cancer cell lines)	alanine aminotransferase (ALT) (Balb/c mice; [4])	alkaline phosphatase (ALP) (Balb/c mice; [4])	creatine phosphokinase (CPK) (Balb/c mice; DOX 7 mg/kg, CON1 14 mg/kg)	other blood parameters (RBC, HGB, HCT, MCV, MCH, MCHC, RDW, PLT, MPV) (Balb/c mice; DOX 7 mg/kg, CON1 14 mg/kg)	percentage of lymphocytes (% LYM, LYM, WBC) (Balb/c mice; DOX 7 mg/kg, CON1 14 mg/kg)	percentage of monocytes and granulocytes (% MON and % GRA) (Balb/c mice; DOX 7 mg/kg, CON1 14 mg/kg)	levels of K (Balb/c mice; DOX 7 mg/kg, 24, 48, 72 h)	pIC50 ([1]; micromolar range in resistant lines, nanomolar in sensitive ones, read-out: DOX active concentration in resistant cancer cell lines)	accumulation of DOX [3]	pIC50 ([1]; range depending on the cell type, FIG. 1, MTT 72 h, read-out: IC50 value of 50% inhibition of cell growth)	percentage of eosinophils (% EOS) (Balb/c mice; CON1 14 mg/kg)	Ca levels (Balb/c mice; [5])	Na levels (Balb/c mice; [5])	total bicarbonate (tCO2) (Balb/c mice; CON1 14 mg/kg, at 48 h, disappeared by 72 h)
–	–	COc1cccc2c1C(=O)c1c(O)c3c(c(O)c1C2=O)C[C@@](O)(C(=O)CO)C[C@@H]3O[C@H]1C[C@H](N)[C@H](O)[C@H](C)O1 [DOX, doxorubicin]	76%	increase	significantly decrease	increased	None of the tested compounds, DOX or CON1, had any impact	decreased	increased	consistently increased	> 5.30	–	–	–	–	–	–
increased	inhibition of P-glycoprotein activity	C=C[C@](C)(O)CC[C@@H]1[C@@]2(C)CCCC(C)(C)[C@@H]2CC[C@@]1(C)O [SC, sclareol]	–	–	–	–	–	–	–	–	–	increase the accumulation of DOX	4.15 to 4.70	–	–	–	–
–	–	N1-((25,3S,4S,6R)-3-hydroxy-2-methyl-6-(((1S,3S)-3,5,12-trihydroxy-3-(2-hydroxyacetyl)-10-methoxy-6,11-dioxo-1,2,3,4,6,11-hexahydrotetracen-1-yl)oxy)tetrahydro-2H-pyran-4-yl)-N4-(3-((4-((R,E)-3-hydroxy-5-((1R,2R,4aS,8aS)-2-hydroxy-2,5,5,8a-tetramethyldecahydronaphthalen-1-yl)-3-methylpent-1-en-1-yl)benzyl)amino)propyl) succinamide [CON1]	–	did not change	increase ALP levels after 48 h	increased	None of the tested compounds, DOX or CON1, had any impact	did not have any impact	did not have any impact	–	–	–	–	not significantly relevant	temporary increase	decrease	transiently increased
